pIC50: −log10 of the molar value.
Legend:
[1] = target: T1, Human recombinant monoamine oxidase MAO-A (Homo sapiens, UniProt P21397); assay: MAO-A inhibition, kynuramine fluorescence assay; type: biochemical
T1 construct: purchased Sigma Aldrich
T1 sequence (P21397 1-527): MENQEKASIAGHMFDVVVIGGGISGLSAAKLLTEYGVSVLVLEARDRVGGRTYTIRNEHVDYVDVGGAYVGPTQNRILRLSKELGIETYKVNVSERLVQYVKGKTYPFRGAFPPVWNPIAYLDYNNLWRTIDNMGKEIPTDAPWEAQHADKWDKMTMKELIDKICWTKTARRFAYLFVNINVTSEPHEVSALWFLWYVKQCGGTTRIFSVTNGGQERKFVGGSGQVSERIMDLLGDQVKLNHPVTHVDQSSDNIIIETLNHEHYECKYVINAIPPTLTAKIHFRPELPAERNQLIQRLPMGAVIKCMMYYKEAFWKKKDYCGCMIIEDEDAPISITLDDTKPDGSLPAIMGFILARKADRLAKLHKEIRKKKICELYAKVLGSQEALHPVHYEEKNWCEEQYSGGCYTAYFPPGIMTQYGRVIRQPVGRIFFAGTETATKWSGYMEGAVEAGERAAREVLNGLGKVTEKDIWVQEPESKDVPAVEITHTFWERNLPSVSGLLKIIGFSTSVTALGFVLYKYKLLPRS
Text: (§1) Human recombinant monoamine oxidase proteins MAO-A and MAO-B were purchased from Sigma Aldrich. MAOs catalyze the oxidative deamination of primary, secondary and tertiary amines. In order to monitor MAO enzymatic activities and/or their inhibition rate by inhibitor(s) of interest, a fluorescent-based (inhibitor)-screening assay was set up. 3-(2-Aminophenyl)-3-oxopropanamine (kynuramine dihydrobromide, Sigma Aldrich), a non fluorescent compound was chosen as a substrate. Kynuramine is a non-specific substrate for both MAOs activities. While undergoing oxidative deamination by MAO activities, kynuramine is converted into 4-hydroxyquinoline (4-HQ), a resulting fluorescent product.
(§2) The monoamine oxidase activity was estimated by measuring the conversion of kynuramine into 4-hydroxyquinoline. […]
(§3) After leaving the enzyme(s) interacting with the inhibitor, 60 to 90 μM of kynuramine was added to each reaction for MAO-B and MAO-A assay respectively, and the reaction was left for 1 hour at 37° C. in the dark. […] The conversion of kynuramine to 4-hydroxyquinoline, was monitored by fluorescence (excitation at 320 nm, emission at 360 nm) using a microplate reader (Infinite 200, Tecan). Arbitrary units were used to measure levels of fluorescence produced in the absence and/or in the presence of inhibitor.
(§4) The Ki (IC50) of each inhibitor was determined at Vmax/2.

[2] = tested on: H3K4 methylation in SH-SY5Y cells; assay: Western blot for dimethylated H3-K4 in SH-SY5Y cells; type: cell-based
Text: B-actin was used as a loading control.

[3] = tested on: platelets; assay: Platelet levels in mice after 5 consecutive once daily injections; type: in vivo, mice (Hsd:Athymic Nude-Foxn1nu); settings: 60 min after last dose
Method: On the fifth day, 60 min after the administration, mice were sacrificed and blood was collected in sodium citrate-containing tubes for haemogram analysis. Platelet levels were determined and referred as % of platelets compared with the levels found in mice treated with vehicle. Platelet levels were determined in a standard hematology analyzer (Abacus Junior Vet, from Diatron) following the manufacturer's instructions.
20% 2-hydroxypropyl-β-cyclodextrin in H2O was used as a vehicle. When necessary, 10% DMSO was also added in the vehicle. Each day, compounds were administered in a single intraperitoneal injection with administration volumes of 15 ml/kg.
Mice strain was Hsd:Athymic Nude-Foxn1nu. Animals were maintained in air and temperature controlled cages with regular supply of water and food.

[4] = target: LSD1 (Homo sapiens, UniProt O60341); assay: LSD1 demethylase inhibition, Amplex Red peroxide/peroxidase-coupled assay with di-methylated H3-K4 peptide; type: biochemical; set-up: purchased BPS Bioscience Inc
Text: Compounds for use in the methods of the invention can be identified by their ability to inhibit LSD1. The ability of the compounds of the invention to inhibit LSD1 can be tested as follows. Human recombinant LSD1 protein was purchased from BPS Bioscience Inc. In order to monitor LSD1 enzymatic activity and/or its inhibition rate by our inhibitor(s) of interest, di-methylated H3-K4 peptide (Millipore) was chosen as a substrate. The demethylase activity was estimated, under aerobic conditions, by measuring the release of H2O2 produced during the catalytic process, using the Amplex® Red peroxide/peroxidase-coupled assay kit (Invitrogen).
Within the experiment, each concentration of inhibitor was tested in triplicate. […] The enzymatic reactions were set up in a 50 mM sodium phosphate, pH 7.4 buffer. […] The conversion of the Amplex® Red reagent to resorufin due to the presence of H2O2 in the assay, was monitored by fluorescence (excitation at 540 nm, emission at 590 nm) using a microplate reader (Infinite 200, Tecan). […]
The maximum demethylase activity of LSD1 was obtained in the absence of inhibitor and corrected for background fluorescence in the absence of LSD1. […]

[5] = target: T2, Human recombinant monoamine oxidase MAO-B (Homo sapiens, UniProt P27338); assay: MAO-B inhibition, kynuramine fluorescence assay; type: biochemical
T2 construct: purchased Sigma Aldrich
T2 sequence (P27338 1-520): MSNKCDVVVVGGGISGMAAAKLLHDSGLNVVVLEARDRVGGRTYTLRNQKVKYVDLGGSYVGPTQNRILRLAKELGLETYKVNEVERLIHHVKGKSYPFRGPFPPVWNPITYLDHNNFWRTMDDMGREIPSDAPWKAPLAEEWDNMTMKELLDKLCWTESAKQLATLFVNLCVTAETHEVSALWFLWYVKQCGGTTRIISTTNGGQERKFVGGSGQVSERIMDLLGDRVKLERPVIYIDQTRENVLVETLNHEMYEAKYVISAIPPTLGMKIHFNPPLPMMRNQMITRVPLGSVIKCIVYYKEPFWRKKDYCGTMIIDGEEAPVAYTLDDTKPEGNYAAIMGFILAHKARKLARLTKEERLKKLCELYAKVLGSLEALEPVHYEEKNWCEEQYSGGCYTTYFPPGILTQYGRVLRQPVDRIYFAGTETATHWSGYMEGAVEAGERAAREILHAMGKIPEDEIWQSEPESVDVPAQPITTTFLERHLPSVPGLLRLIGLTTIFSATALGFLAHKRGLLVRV
Text: as §1, §2, §3, §4

[6] = 10 mg/kg i.p. once daily x 5 days
[7] = 20 mg/kg i.p. once daily x 5 days
[8] = 40 mg/kg i.p. once daily x 5 days

SMILES | pIC50 [1] | % platelet vs. Vehicle [3, 6] [%] | % platelet vs. Vehicle [3, 7] [%] | % platelet vs. Vehicle [3, 8] [%] | pIC50 [4] | other results
NC(=O)CN[C@@H]1C[C@H]1c1ccc(OCc2ccccc2)cc1 (relative stereo) [Compound 1] | < 5.70 | 66 | 55 | 34 | > 6.70 | H3K4 methylation (western blot) ([2]; SH-SY5Y cells grown with compound for 1, 2 and 3 days, Dual-1 at 100 μM (FIG. 3)): increases H3K4 methylation in cells in a time dependent manner; potency at increasing global dimethylated H3K4 levels as compared to tranylcypromine ([2]; SH-SY5Y cells, 1, 2 and 3 days): ≥ 10 fold; % platelet vs. Vehicle ([3]; 5 mg/kg i.p. once daily x 5 days): 91%
N[C@H]1CCN(CCN[C@H]2C[C@@H]2c2ccc(-c3cccc(C(F)(F)F)c3)cc2)C1 [Compound 5] | < 6.30 |  |  |  | > 6.70 | pIC50 [5]: < 6.00
CN1CCN(C(=O)CN[C@H]2C[C@@H]2c2ccc(OCc3ccccc3)cc2)CC1 (racemic) [Compound 3] |  | 5 |  |  |  | % platelet vs. Vehicle ([3]; 1 mg/kg i.p. once daily x 5 days): 46%; % platelet vs. Vehicle ([3]; 3 mg/kg i.p. once daily x 5 days): 16%
N[C@H]1CC1c1ccc(-c2cccc(O)c2)cc1 (stereo partly shown) [Compound 6] |  |  |  |  |  | % platelet vs. Vehicle ([3]; 17 mg/kg i.p. once daily x 5 days): 56%; % platelet vs. Vehicle ([3]; 34 mg/kg i.p. once daily x 5 days): 46%; % platelet vs. Vehicle ([3]; 52 mg/kg i.p. once daily x 5 days): 63%
CS(=O)(=O)Nc1cccc(-c2ccc(C3C[C@@H]3N)cn2)c1 (stereo partly shown) [Compound 7] |  |  | 68 | 44 |  | 

Source: patent US9908859B2, “Lysine demethylase inhibitors for myeloproliferative disorders” (Oryzon Genomics S.A., priority 2011, dated 2018)
